Assay results: PMC3050001 (Science (New York, N.Y.), 2010)

Assays:
[1] = test system: drug-selected Dd2 parasites (NITD609-R^Dd2, NITD678-R^Dd2); conditions: for cross-resistance in spiroindolone-selected mutants: NITD609- and NITD678-selected Dd2 mutants
P. berghei = assay type: in vivo, Plasmodium berghei (mice)
[2] = test system: P. vivax clinical isolates; assay: Ex vivo sensitivity assay with fresh clinical isolates
in vivo = conditions: male, rat, po
[3] = test system: panel of human G-protein coupled receptors, enzymes and ion channels
[4] = test system: P. falciparum clinical isolates; assay: Ex vivo sensitivity assay with fresh clinical isolates; conditions: Plasmodium falciparum, in Homo sapiens
[5] = assay type: in vivo, mice and rats
[6] = test system: P. falciparum parasites (Dd2, NITD609-R^Dd2); assay: [35S]-Met/Cys incorporation assay; assay type: cell-based, Plasmodium falciparum; conditions: P. falciparum Dd2, within one hour
P. falciparum strains = conditions: culture-adapted P. falciparum strains incl. drug-resistant strains
[7] = miniaturized Ames assay
[8] = male rats, oral, daily for 14 days
[9] = test system: synchronized parasites at ring, trophozoite and schizont stages; assay: In vitro drug sensitivity assay with synchronized parasites; assay type: cell-based, Plasmodium falciparum
[10] = test system: Dd2^attB parasites expressing mutant PfATP4; assay: Growth inhibition of transgenic pfatp4 lines

CC(=O)C1=C(O)[C@@H]2[C@H]3c4c[nH]c5cccc(c45)C[C@H]3C(C)(C)N2C1=O [cyclopiazonic acid]
cross-resistance in spiroindolone-selected mutants [1]: no cross-resistance

C[C@H]1Cc2c([nH]c3cc(Cl)c(F)cc23)[C@@]2(N1)C(=O)Nc1ccc(Cl)cc12 [NITD609]
IC50 ([1]; Plasmodium falciparum, DD2, read-out: mean IC50 of drug-selected parasites): 3 to 11 nM | ED90 (P. berghei; oral, P. berghei mouse model): 2.7 mg/kg | IC50 ([2]; Plasmodium vivax, in Homo sapiens): < 10 nM | AUC(0-t) (in vivo): 29.4 to 56.5 µg·h/mL | binding to off-target panel [3]: no significant binding | IC50 [4]: < 10 nM | volume of distribution ([5]; mice and rats, oral and intravenous administration): moderate | bioavailability ([5]; orally administered): excellent | half-life ([5]; orally administered): long | oral absorption ([5]; orally administered): well absorbed | effect on protein synthesis ([35S]-Met/Cys incorporation) [6]: effectively blocked protein synthesis | IC50 (P. falciparum strains): 0.5 to 1.4 nM | intrinsic mutagenic activity [7]: lacked intrinsic mutagenic activity | adverse events / histopathological findings [8]: no adverse events or significant histopathological findings were observed | logD (physchem; pH 7.4): 4.6 | pKa (physchem; pKa^2): 10.7 | sensitivity of parasite blood stages ([9]; high concentration, ≈100 × IC50 value): all stages (rings, trophozoites and schizonts) were similarly sensitive | sensitivity of parasite blood stages ([9]; low concentrations, ≈1 or 10 × IC50 value): schizonts were the most susceptible

C[C@@H]1CC[C@H]2[C@@H](C)C(=O)O[C@@H]3O[C@@]4(C)CC[C@@H]1[C@]32OO4 [artemisinin]
cross-resistance in spiroindolone-selected mutants [1]: None of the selected mutants showed cross-resistance | potency against wild-type vs transgenic strains [10]: equivalent potency | effect on protein synthesis ([35S]-Met/Cys incorporation) [6]: only showed a nominal decrease

CO[C@H]1O[C@@H]2O[C@@]3(C)CC[C@H]4[C@H](C)CC[C@@H]([C@H]1C)[C@@]24OO3 [Artemether, reference compound]
Survival (P. berghei; 1 × 100 mg/kg oral, control animals 6–7 days): 7.6 days | inhibition of parasite growth ([9]; treatment at 8 nM for 6 hours): Strong inhibition

CCN(CC)CCCC(C)Nc1ccnc2cc(Cl)ccc12 (stereo not drawn) [Chloroquine, reference compound]
stage-specific sensitivity (ring vs trophozoite) ([2]; P. vivax, drug exposure 20 h, growth determined after 42 hours): significant stage-specific sensitivity

OC(c1cc(C(F)(F)F)nc2c(C(F)(F)F)cccc12)C1CCCCN1 (stereo not drawn) [Mefloquine]
potency against wild-type vs transgenic strains [10]: equivalent potency | effect on protein synthesis ([35S]-Met/Cys incorporation) [6]: only showed a nominal decrease

C[C@@H]1C[C@@H]([C@H](O)CC2CC(=O)NC(=O)C2)C(=O)[C@@H](C)C1 [cycloheximide]
effect on protein synthesis ([35S]-Met/Cys incorporation) [6]: A similar effect was observed

COc1ccc(C[C@H]2NC[C@H](O)[C@H]2OC(C)=O)cc1 [anisomycin]
effect on protein synthesis ([35S]-Met/Cys incorporation) [6]: A similar effect was observed

C/C=C(/C)C(=O)O[C@H]1C(C)=C2[C@H]([C@@H]1OC(=O)CCCCCCC)[C@@](C)(OC(C)=O)C[C@H](OC(=O)CCC)[C@@]1(O)[C@H]2OC(=O)[C@@]1(C)O [thapsigargin]
cross-resistance in spiroindolone-selected mutants [1]: no cross-resistance
